Measured values as given in patent US9526915B2, “Methods for regulating cell mitosis by inhibiting serine/threonine phosphatase” (priority 2008, dated 2016).
“And” between values parts separate entries of the source, which are not always exact repeats. Identical values can stand only once.

Columns and labels:
[1] = system: DAOY medulloblastoma cells; assay: Western blot of DAOY cell lysates for TCTP, p-Plk, total Plk; type: cell-based, human
Method: DAOY cells in culture were exposed to Compound 100 for 4 hours and for 24 hours, and stained for TCTP, p-Plk and total Plk on western blots.
DAOY cells in culture were exposed to compound 100 for 4 hours and for 24 hours, and stained for TCTP, p-plk (phosphorylated plk), and total plk on western blots.

[2] = system: human glioblastoma cell line, U373; assay: U373 growth in culture for 7 days, Compound 100 with standard cytotoxic drugs; type: cell-based; conditions: Compound 100 2.5 uM, cisplatin 0.1 uM, doxorubicin 0.01 uM, taxol 0.3 nM
Method: Cells were exposed to vehicle alone (control); Compound 100 at 2.5 uM; cisplatin at 0.1 uM; doxorubicin at 0.01 uM; or taxol at 0.3 nM alone or to the combination of Compound 100 plus each of the standard agents at the same concentrations. […] The expected percent inhibition at 7 days is the product of the inhibition by each agent alone.
Cells were exposed to vehicle alone (control); compound 100 at 2.5 μM, cisplatin at 0.1 μM; doxorubicin at 0.01 μM; or taxol at 0.3 nM alone or to the combination of compound 100 plus each of the standard agents at the same concentrations. […] The expected percent inhibition from a combination of drugs is calculated by multiplying the actual percent inhibition by each drug alone and comparing that product to the actual percent inhibition caused by the combination of the two drugs (Valeriote, 1975). The expected percent inhibition at 7 days is the product of the inhibition by each agent alone.

DAOY cells = assay: Immunofluorescence of alpha-tubulin and Plk-1 in DAOY cells; type: cell-based, human; conditions: 5 μM, 4 hours
Method: DAOY cells growing in tissue culture were exposed to 5 μM Compound 100 for 4 hours. The cells were rinsed, fixed, and stained for immunofluorescent recognition of alpha-tubulin and Plk-1. Control cells at the left show in the upper left panel diffuse staining for alpha-tubulin distributed throughout the cytoplasm. […] The lower right panel, stained for Plk-1, alpha-tubulin, and DNA show the almost pure extra nuclear location of homogeneously distributed alpha-tubulin. The right panel consists of 4 elements showing the effects of exposure to Compound 100.

[3] = system: U87 glioblastoma multiforme cells; assay: U87 s.c. xenografts in SCID mice, Compound 100; type: in vivo; conditions: treatment from day 7, measured to day 26
Method: SCID mice were implanted with 5×10^6 U87 cells subcutaneously. On day 7 treatment was begun on half of the animals. The size of the subcutaneous mass of tumor cells was measured weekly until the animals were sacrificed on day 26.

[4] = system: DAOY medulloblastoma cells; assay: DAOY medulloblastoma s.c. xenografts in SCID mice; type: in vivo; conditions: treatment from day 6, by day 23
Method: DAOY medulloblastoma cells were implanted subcutaneously into the flanks of SCID mice. On day 6, mice were divided into 3 groups, one group receiving Compound 100, one group receiving Compound 102, and one group receiving vehicle alone. The subcutaneous tumor masses were measured on day 6, day 13, day 18, and on day 23 when all animals were sacrificed. […] In this model DAOY cells, when untreated, reached their maximum growth about 2 weeks after implantation with slow regression thereafterwards.

TCTP = TCTP in U87 xenografts by 2-dimensional gel electrophoresis; type: in vivo, SCID mice; conditions: 1.5 mg/kg IP, 4 hours
Method: SCID mice were implanted with 5×10^6 U87 cells subcutaneously. On day 26, the mice were given 1.5 mg/kg Compound 100 by IP injection. The animals were sacrificed after 4 hours treatment and the subcutaneous mass of tumor cells were removed for 2-dimensional gel electrophoretic analysis. […] In the left panel, TCTP subsequently identified by LC-MS-MS is circled and shown in an enlargement of the gel.
SCID mice were implanted with 5 million U87 cells subcutaneously. On day 26, the mice were administered 1.5 mg/kg of compound 100 by intraperitoneal injection. The animals were sacrificed after 4 hours of treatment and the subcutaneous mass of tumor cells were removed for 2-dimensional gel electrophoretic analysis.

human cancer cell lines = assay: Cancer cell proliferation in cell culture; type: cell-based
U373 cells [5] = assay: Western blots of U373 cells; type: cell-based, human; conditions: U373, 2 nM, 24 hours
Method: (§1) 5×10^6 U87MG cells were inoculated s.c. into each flank of 20 SCID mice. When the xenografts were 0.5+/−0.1 cm (day 0), 5 animals each received i.p. vehicle alone days 1-12 (50% DMSO/H20); compound 102 alone at 1.5 mg/kg days 1-3, 5-7, & 9-11; TMZ alone at 80 mg/kg days 4, 8, 12; or both drugs at the same doses and schedules. If xenografts reached 1800 mm^3, animals were sacrificed. […] B, Survival curve combining the data from the study shown in FIG. 12A, with a second identical study involving a total of 10 animals with two xenografts each. Disease-free survival was defined as no recurrence of either xenografts. […] As in 12A, except that xenografts of SH-SY5Y cells were implanted in one flank only and animals were treated with one additional cycle of drugs, i.e., compound 102 on days 13-15, TMZ, on day 16, and compound 102 plus TMZ on the same schedules. […] E, Western blots of U87 cells in culture 24 hours after exposure to compound 102 at 2.5 uM, TMZ at 25 uM or DOX at 2 uM, and compound 102 plus TMZ or DOX. F, Western blots of U373 cells 24 hours after exposure to compound 102 at 2.5 uM, doxorubicin at 2 uM, and both drugs. G, Western blots of U373 cells 24 hours after exposure to TMZ at 25 uM, okadaic acid at 2 nM, and both drugs.

U87MG xenografts = assay: U87MG s.c. xenografts in SCID mice, compound 102 and TMZ; type: in vivo; conditions: same doses and schedules
Method: as §1
To determine the impact of altering DNA-damage defense mechanisms by inhibiting PP2A on the efficacy of cytotoxic chemotherapy, the effects of compound 102 combined with TMZ, a non-specific DNA-methylating drug, routinely used for the palliative treatment of GBM patients (Prados et al, 2008), were studied. SCID mice bearing s.c. xenografts of either the GBM line U87MG or the neuroblastoma line SH-SY5Y were treated with vehicle alone, compound 102 alone, TMZ alone, or both drugs at the same doses and schedules as when given alone.

U87MG cells = assay: Cellular and molecular changes in U87MG cells (Western blots, IFS); type: cell-based, human; conditions: U87MG, 24 hours; compound 102 2.5 uM, TMZ 25 uM, DOX 2 uM
Method: D, Western blots of U87 lysates: TCTP, pPlk (Tre-210), total Plk, and β-actin. E, IFS of TCTP in U87 cells, F, Western blots p53 (ser-15), pMDM2 (ser-166), and β-actin and G, IFS of p53 (ser-15).
as §1
TCTP is an abundant, highly conserved, multifunctional protein that binds to and stabilizes microtubules before and after mitosis and also exerts potent anti-apoptotic activity (Bommer and Thiele, 2004; Yarm, 2002; Susini et al, 2008) (FIG. 11E).
[…] Akt-1 activation, however, may be anti- or proapoptotic depending on the context of cell signaling (Andrabi et al, 2007).
The effects of compound 102, TMZ, doxorubicin (DOX), a widely used anti-cancer drug that disrupts DNA replication, compound 102 plus TMZ, and compound 102 plus DOX on the amount of pAkt, p53 and MDM2 in U87MG, a cell line with wild-type p53, and in U373, a cell line with mutant p53 (Short et al, 2007) were assessed by Western blots.

U373 cells [6] = assay: Cell cycle distribution of U373 cells by FACS; type: cell-based, human; conditions: U373, 48 hours
Method: Cells in unsynchronized logarithmic growth were exposed to vehicle or drug and adherent cells and cells in the media were collected. Harvested cells were fixed with 70% cold ethanol for 20 min at −20 degrees, washed with PBS, and stained with 10 ug/ml of PI and 1 ug/ml RNAse in TBS for 30 minutes and analyzed by FACS. A, Flow cytometry profiles of U87 cells after exposures to DMSO only, compound 102 only, 5 uM; TMZ only, 25 uM; compound 102 with TMZ combination, doxorubicin only, 2.0 uM and compound 102 with doxorubicin combination. B, Flow cytometry profiles of U373 cells. Exposures as in A, and C, Schema of proposed mechanisms of compound 102 enhancement of cancer chemotherapy.
We analyzed cell cycle patterns of U87MG and U373 cells 48 hours after exposure to TMZ or DOX alone and in combination with compound 102.

Structure (SMILES): CN1CCN(C(=O)C2C(C(=O)O)[C@H]3CC[C@@H]2O3)CC1 (some centres unmarked) [Compound 100]
- Plk-1 phosphorylation (western blot) ([1]; 4 hours): increase
- TCTP (western blot) ([1]; 4 hours): decrease
- TCTP (western blot) ([1]; 24 hours): no TCTP is detectable
- inhibition at 7 days by agent alone [2]: 71%
- alpha-tubulin distribution (DAOY cells): marked distortion of the homogeneous distribution
- U87 subcutaneous xenograft growth [3]: Inhibition
- DAOY subcutaneous tumor mass [4]: marked regression
- TCTP concentration in U87 xenografts (TCTP): diminution in TCTP
- inhibition of human cancer cell lines (human cancer cell lines; breast, colon, stomach, liver, ovary, prostate, brain, lung, leukemias, lymphomas): dose dependent inhibition
- effect of higher doses on tumor cells (human cancer cell lines; higher doses): mitotic catastrophe and cell death
- growth of tumor cells at non-inhibitory doses (human cancer cell lines; submicromolar to very low micromolar concentrations): slight but clear-cut stimulation

Structure (SMILES): C=C1[C@@H](O)[C@@H]2O[C@]3(CC[C@H](/C=C/[C@@H](C)[C@@H]4CC(C)=C[C@@]5(O[C@H](C[C@@](C)(O)C(=O)O)CC[C@H]5O)O4)O3)CC[C@H]2O[C@@H]1[C@@H](O)C[C@H](C)[C@H]1O[C@@]2(CCCCO2)CC[C@H]1C [Okadaic acid, okadaic acid, reference compound]
- effects on pAkt-1 and on mutant p53 (U373 cells [5]): mimicked the effects of compound 102

Structure (SMILES): Cn1nnc2c(C(N)=O)ncn2c1=O [TMZ, temozolomide, reference compound]
- time of sacrifice (xenografts reached 1800 mm^3) (U87MG xenografts): 7-9 week

Structure (SMILES): N.N.[Cl][Pt][Cl] [cisplatin]
- inhibition at 7 days by agent alone [2]: 93.5% and 93%

Structure (SMILES): COc1cccc2c1C(=O)c1c(O)c3c(c(O)c1C2=O)C[C@@](O)(C(=O)CO)C[C@@H]3O[C@H]1C[C@H](N)[C@H](O)[C@H](C)O1 [doxorubicin, reference compound]
- MDM2 (U87MG cells): little effect
- p53 (U87MG cells): increased
- pAkt-1 (U87MG cells): decreased
- G1 phase cells (U373 cells [6]; compound 102 5 uM, TMZ 25 uM, doxorubicin 2.0 uM): reduced
- G2/M phase cells (U373 cells [6]; same concentrations): reduced
- S phase cells (U373 cells [6]; same concentrations): greatly increased
